# Test results: patent publication US9034906B2, “EP4 agonist” (Asahi Glass Company, Limited, priority 2008, dated 2015)
# How the values were obtained:
# [1] = tested on: dextran sodium sulfate-induced colitis; test: Dextran sodium sulfate-induced colitis in rats, prophylactic; type: in vivo, rat; conditions: SD rats, 5.5 w/v % DSS, oral 1 mg/kg and 3 mg/kg once a day
# Procedure: Prophylactic effect of compound F on colitis was also studied in rats. Male SD rats, 7 weeks old, body weight around 210 g-240 g (Charles River) were purchased, acclimated for 1 week and used for the study. Except the normal group, the rats were allowed to freely drink a DSS (MP Biochemicals, M.W. 36,000-50,000, Lot No. 4556J) solution prepared to 5.5 w/v % for 8 days to induce colitis. Compound F at doses of 0.3, 1 and 3 mg/kg was orally administered once a day, daily, from one day before the start day of DSS drinking to one day before autopsy (day 7). To the control group was orally administered a solvent (1 vol % ethanol solution) at 5 mL/kg.
# On day 8 from the start of DSS drinking, 1.25 w/v % Evans blue solution was administered at 0.2 mL/100 g from the tail vein. After 30 min, the rats were subjected to laparotomy under ether anesthesia and exsanguinated to death. Thereafter, the large intestine was dissected from just below the cecum to the anus, and the length was measured with a scale. […] The next day, the dry weight was measured, formamide (2 mL) was added, the dye was extracted at 50° C. overnight, and the level thereof was measured at 620 nm. A standard curve was prepared using an Evans blue standard solution, and the amount (mg) of Evans blue in 1 g of the colonic tissue was calculated to estimate degree of colonic tissue injury. […]
# [2] = tested on: dextran sodium sulfate-induced colitis; test: Dextran sodium sulfate-induced colitis model in mice (C57BL/6); type: in vivo, mouse; conditions: C57BL/6 mice, DSS, oral 0.3 and 1 mg/kg once a day
# Procedure: Whether or not an IP agonist has an effect on such colitis model was determined using a selective IP agonist, BPS.
# Female C57BL/6 mice (6 weeks old, Japan SLC) were purchased, acclimated for 1 week and used for the study. Except the normal group, the mice were allowed to freely drink a 3 or 2 w/v % DSS (MP Biochemicals, Lot No. 5653H and 5464H, respectively) solution for 1 week to induce colitis. BPS at a dose of 0.3 mg/kg and compound F at doses of 0.3 and 1 mg/kg were orally administered once a day, daily, from the start day of DSS drinking (day 0) to one day before autopsy (day 9). To the control group was orally administered a solvent (1 vol % ethanol solution) at 10 mL/kg in the same manner. The consistency of the stool was graded from score 0 to 4, with normal (0), partly loose stool (1), loose stool (2) and diarrhea (4). The blood feces was also graded from score 0 to 4, with normal (0), partly blood feces (1), blood feces (2) and blood feces plus proctorrhagia (4). The sum of both grades was defined as the stool score (maximum 8). Furthermore, the length of the large intestine was measured in the same manner as in Example 23. Six to 10 animals were used for each group, and the results are shown in average±standard deviation.
# [3] = tested on: ethanol-induced gastric mucosal injury; test: Ethanol-induced gastric mucosal injury model in rats; type: in vivo, rat; conditions: SD rats, 30 min before ethanol
# Text: The suppressive effect of compound F on gastric mucosal injury was investigated in ethanol-induced gastric mucosal injury model in rats. This model is frequently used as an animal model of human acute gastritis associated with congestive mucosal injury (Reference K).
# Male SD rats (7 weeks old, Charles River) were purchased through Oriental BioService Inc., acclimated for 1 week and used for the study. The rats were grouped based on the body weight, placed in a clean cage set with a wire mesh floor one day before the study, fasted for 19 hr (without water for last 3 hr), and orally administered with ethanol (special grade, Nacalai Tesque, Lot No. V8A5862, 1.5 mL) in all groups to induce gastric mucosal injury. Compound F was orally administered at doses of 0.01, 0.1 and 1 mg/kg 30 min before induction of gastric mucosal injury at a volume of 5 mL/kg. To the control group was orally administered a solvent (1 vol % ethanol solution) at 5 mL/kg in the same manner. Eight animals were used for each group.
# The rats were bled to death from the abdominal aorta and caudal vena cava under ether anesthesia after 1 hr from the ethanol administration, and the stomach was isolated. […] The length and width of each ulcer were measured under a stereomicroscope, the area was calculated, and the sum thereof was taken as the total ulcer area.
# human EP4 = molecular target: T1, human EP4 (Homo sapiens, UniProt P35408); test: Receptor affinity, tritium-labeled PGE2 binding to membranes of transfected COS-7 cells; conditions: binding affinity ratio
# T1 construct: expressed in transfected cells; host or cells: COS-7 (membranes)
# T1 sequence (P35408 whole entry): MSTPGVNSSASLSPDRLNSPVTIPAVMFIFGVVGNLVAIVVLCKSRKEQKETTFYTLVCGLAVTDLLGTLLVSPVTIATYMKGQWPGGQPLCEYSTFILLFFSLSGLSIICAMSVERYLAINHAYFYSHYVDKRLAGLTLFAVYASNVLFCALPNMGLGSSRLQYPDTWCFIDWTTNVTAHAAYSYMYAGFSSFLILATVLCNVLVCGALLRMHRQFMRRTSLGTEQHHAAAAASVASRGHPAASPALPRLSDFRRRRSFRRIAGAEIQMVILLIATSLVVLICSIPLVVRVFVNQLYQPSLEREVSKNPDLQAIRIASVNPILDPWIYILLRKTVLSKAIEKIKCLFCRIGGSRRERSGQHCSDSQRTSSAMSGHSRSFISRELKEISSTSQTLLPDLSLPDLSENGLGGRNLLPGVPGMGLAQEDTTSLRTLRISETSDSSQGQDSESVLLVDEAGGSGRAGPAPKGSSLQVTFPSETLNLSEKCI
# Procedure: PG receptor affinity of compound F and compound J of the present invention was evaluated. Compound F used was one synthesized in Example 9, and compound J was prepared by separating and purifying the compound synthesized in Example 14 with a column (the same preparations were used in the following Examples). COS-7 cells were transfected with the genes of mouse EP4, human EP1-4 or human IP to overexpress the receptor and then the cell membranes were collected. […] The dissociation constant Kd value was obtained and inhibition constant Ki value of each test compound was determined in a conventional method.
compound,measurement,setting,value
"Cc1cccc([C@@H](C)[C@H](O)/C=C/[C@@H]2[C@@H]3[C@H](C[C@H]2O)O/C(=C\CCCc2nnn[nH]2)C3(F)F)c1 [Compound F, 4-[(Z)-(1S,5R,6R,7R)-6-[(1E,3R,4R)-3-hydroxy-4-(m-tolyl)-1-pentenyl]-7-hydroxy-2-oxa-4,4-difluoro-bicyclo[3.3.0]octan-3-ylidene]-1-(tetrazol-5-yl)butane]","Effect on stool score, colonic tissue injury and shortening of the large intestine",[1],suppressive tendency or significant suppressive effect
same,"Effect on the onset of colitis (stool score, colon shortening)",[2],superior prophylactic effect
same,Effect on total ulcer area (stomach),[3]; oral 1 mg/kg,almost completely reduced the area
same,Effect on total ulcer area (stomach),"[3]; oral, from 0.01 mg/kg (0.01, 0.1 and 1 mg/kg)",significantly reduced the total ulcer area in a dose-dependent manner
same,"Affinity for human EP4 higher than to human EP1, EP2 and EP3",human EP4,≥ 60 fold
same,Affinity for human EP4 higher than to human IP,human EP4,≥ 100 fold
